Results from patent US10570080B2, “Perfume ketones” (Givaudan, S.A., priority 2015, dated 2020).
Where two headings read alike, the source gives them in different places.

Columns and labels:
[1] = tested on: Luciferase gene under the control of the ARE-element of the gene AKR1C2 (KeratinoSens cell line)
Protocol: (§1) Sensitization is measured by the commercially-available and universally-accepted KeratinoSens™ test, which compares the potential skin sensitization risk of chemicals.
(§2) KeratinoSens cells were grown for 24 h in 96-well plates. The medium was then replaced with medium containing the test chemical and the solvent dimethylsulfoxide (DMSO) at a final level of 1%. Each compound was tested at 12 binary dilutions in the range from 0.98 to 2000 μM. Cells were incubated for 48 h with the test agents, and then luciferase activity and cytotoxicity were determined. This full procedure was repeated three times for each chemical. For each chemical in each repetition and at each concentration, the gene induction compared to DMSO controls and the wells with statistically significant induction over the threshold of 1.5 (i.e. 50% enhanced gene activity) were determined. Furthermore, the maximal fold-induction (Imax) and the EC1.5 value (concentration in μM for induction above the threshold) were calculated.
(§3) Compounds were tested using the commercial KeratinoSens™ assay for skin sensitization.

[2] = tested on: Luciferase gene under the control of the ARE-element of the gene AKR1C2 (KeratinoSens cell line); experiment: KeratinoSens assay for skin sensitization: luciferase gene induction; conditions: for Concentration for 1.5-fold gene induction (EC 1.5 in μM): 48 h, n.i. = no induction above threshold of 1.5; for Imax (fold maximal gene induction): 48 h incubation, 0.98 to 2000 μM, vs DMSO controls
Protocol: as §1, §2, §3

KeratinoSens cells = experiment: KeratinoSens assay: cytotoxicity / cellular viability; conditions: 48 h
Protocol: KeratinoSens cells were grown for 24 h in 96-well plates. The medium was then replaced with medium containing the test chemical and the solvent dimethylsulfoxide (DMSO) at a final level of 1%. Each compound was tested at 12 binary dilutions in the range from 0.98 to 2000 μM. Cells were incubated for 48 h with the test agents, and then luciferase activity and cytotoxicity were determined. This full procedure was repeated three times for each chemical.
as §3

[3] = target: T1, test peptide Cor1C-420 (Ac-NKKCDLF) (Homo sapiens, UniProt Q9ULV4, I423F); experiment: Peptide reactivity assay for skin sensitization (similar to DPRA), LC-MS; type: biochemical; conditions: 37° C., 1 mM test chemical, 0.1 mM peptide
T1 construct: purchased Genscript Inc., Piscataway, N.J., USA
Protocol: A second method to determine allergenic potential of chemicals is the DPRA direct peptide assay (OECD TG 442c). It is based on the fact that allergenic chemicals must react with a peptide/protein in order to be immunogenic.
A peptide reactivity assay (A. Natsch, H. Gfeller, Toxicol. Sci 2008, 106, 464-478) was conducted similarly to the DPRA assay: The test chemicals were dissolved to a final concentration of 4 mM in acetonitrile and 250 μl of this solution were added to 2 ml HPLC vials. The test peptide Cor1C-420 with the sequence Ac-NKKCDLF (Genscript Inc., Piscataway, N.J., USA), was dissolved at 0.133 mM in 20 mM phosphate buffer at pH 7.5, and 750 μl of this solution were added to each test vial (final concentrations: 1 mM of test chemical and 0.1 mM of peptide in 25% acetonitrile; ratio 1:10 as in the DPRA assay). The samples were incubated for 1-24 h at 37° C. and at regular intervals they were analysed by LC-MS analysis on a VELOS PRO Mass spectrometer (Thermo […], San Jose, Calif., U.S.A.) operated in the ESl(+) mode. The temperature of the capillary was kept at 275° C. Mass spectra were recorded from 200-2000 amu. […]
Two endpoints are measured with this assay: • a) Depletion of the parent peptide. The mass of the protonated parent peptide is measured and the corresponding peak integrated (% depletion; FIG. 2). […]

Compound	concentration at which the luciferase gene is clearly induced [1]	maximal gene induction over control [1]	sensitization rating by the KeratinoSens assay [1]	Concentration for 1.5-fold gene induction (EC 1.5 in μM) ([2]; KeratinoSens)	Imax (fold maximal gene induction) ([2]; KeratinoSens)	Concentration for 50% Cytotoxicity (KeratinoSens cells)	levels of peptide adducts, fold lower as compared to Damascone delta ([3]; after 1 h)	peptide depletion ([3]; over the 24 h experiment)	sensitization rating by the KeratinoSens assay [2]	induction of luciferase activity above the 1.5-fold threshold ([2]; KeratinoSens)
C/C=C/C(=O)C1C(C)C=CCC1(C)C (stereo not shown) [Damascone delta™, (2E)-1-(2′,6′,6′-trimethylcyclohex-3′-en-1′-yl)but-2-en-1-one]	4 µM	8.7 fold	significantly sensitizing compound	–	–	–	–	–	–	–
CC=C(C)C(=O)C1CCC=CC1C (stereo not drawn) [Example 8, (2E,1′R*,2′R*)-2-Methyl-1-(2′-methylcyclohex-3′-en-1′-yl)but-2-en-1-one]	–	–	–	n.i.	1.35 fold	316.4 µM	–	–	–	–
C/C=C(\C)C(=O)[C@@H]1[C@@H](C)C=CCC1(C)C (relative stereo) [Example 1, (2E,1′R*,2′S*)-2-Methyl-(2′,6′,6′-trimethylcyclohex-3′-en-1′-yl)but-2-en-1-one]	–	–	–	n.i.	1.09 fold	90.3 µM	3200 fold	no significant peptide depletion	non-sensitizing	did not induce luciferase activity above the 1.5-fold threshold
